MIC data for 16 compounds are collected here from patent US10253039B2, “Inhibitors of bacterial DNA gyrase with efficacy against gram-negative bacteria” (priority 2014, dated 2019).

Holding throughout (format): cell-based
The test system of one assay is E. coli BW25113. The assay is described as follows: MIC, microdilution in 96-well plates. Particulars: Escherichia coli, BW25113, B: E. coli BW25113; read-out: MIC. The essentials: (§1)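 After 16-18 h shaking incubation at 37 °C, MIC was read visually as the lowest concentration without turbidity. Compounds were 2-fold serially diluted in LB medium seeded with a 1:10000 inoculum, following the CLSI microdilution protocol.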
In general terms: In broth dilution the organism is exposed to a series of concentrations in liquid medium.

The next assay has as its system Edwardsiella tarda. The assay is described as follows: MIC, microdilution in 96-well plates. The conditions noted are these: D: Edwardsiella tarda. The essentials:
as §1

Another assay concerns E. coli JW5503 (deltolC). In words: MIC, 20-strain panel. The conditions noted are these: Escherichia coli, C: E. coli JW5503 (deltolC). In short, it runs like this: as §1
For another assay, the system named is Streptococcus pyogenes. The assay is described as follows: MIC, 20-strain panel. In short, it runs like this:
as §1

The test system of assay [1] is Staphylococcus saprophyticus subsp. saprophyticus. The assay is described as follows: MIC, 20-strain panel. The essentials: as §1
Another assay relates to Shigella flexneri. The assay is described as follows: MIC, 20-strain panel. Particulars: G: Shigella flexneri. In short, it runs like this: as §1
A further assay has as its system Streptococcus agalactiae. The assay is described as follows: MIC, 20-strain panel. The essentials:
as §1

Assay [2] has as its system Salmonella enterica subsp. enterica typhimurium. In words: MIC, 20-strain panel. The conditions noted are these: F: Salmonella enterica subsp. enterica Typhimurium. The essentials: as §1
In the next assay the test system is E. coli MG1655. In words: MIC, 20-strain panel. The conditions noted are these: Escherichia coli, MG1655, A: E. coli MG1655; read-out: MIC. The essentials: as §1
Assay [3] deals with Staphylococcus epidermidis. The assay is described as follows: MIC, 20-strain panel. In short, it runs like this:
as §1

The test system of assay [4] is Staphylococcus aureus subsp. aureus. In words: MIC, 20-strain panel. The conditions noted are these: H: Staphylococcus aureus subsp. aureus, read-out: MIC. In short, it runs like this:
as §1

The test system of assay [5] is Klebsiella pneumoniae subsp. pneumoniae. In words: MIC, 20-strain panel. Particulars: E: Klebsiella pneumoniae subsp. pneumoniae. The essentials: as §1

By MIC is commonly meant the lowest concentration that inhibits growth of the organism.

Structures are written as SMILES. Values after ≈ are worked out from the molar mass of the structure shown.

Consider `O=S(=O)(N[C@@H]1CCN(Cc2ccc(OC(F)(F)F)cc2)C1)c1cccc(OC(F)(F)F)c1` [Compound 51], for which the MIC in the assay with E. coli BW25113 is above 8 µg/mL; against Edwardsiella tarda, above 8 µg/mL; against E. coli JW5503 (deltolC), 4 µg/mL (≈ 8.26 µM); against Streptococcus pyogenes, above 8 µg/mL; in assay [1], above 8 µg/mL; in the assay with Shigella flexneri it was above 8 µg/mL. In addition, the MIC (in the assay on Streptococcus agalactiae; in assay [2]; in the assay on E. coli MG1655; in [3]; in assay [4]; in assay [5]) was above 8 µg/mL in each case.

As for `O=S(=O)(N[C@@H]1CCN(Cc2ccc(SC(F)(F)F)cc2)C1)c1cccc(C(F)(F)F)c1` [Compound 52], the MIC with E. coli BW25113 is above 8 µg/mL; in the assay on Edwardsiella tarda, above 8 µg/mL; in the assay with E. coli JW5503 (deltolC), 4 µg/mL (≈ 8.26 µM); with Streptococcus pyogenes, above 8 µg/mL; in [1], above 8 µg/mL; with Shigella flexneri it was above 8 µg/mL. Besides, the MIC (with Streptococcus agalactiae; in assay [2]; in the assay on E. coli MG1655; in [3]; in assay [4]; in assay [5]) was above 8 µg/mL throughout.

Turning to `O=S(=O)(N[C@@H]1CCN(Cc2ccc(-c3cccs3)cc2)C1)c1cccc(OC(F)(F)F)c1` [Compound 53], the MIC with E. coli BW25113 was above 8 µg/mL; against Edwardsiella tarda, above 8 µg/mL; against E. coli JW5503 (deltolC), 4 µg/mL (≈ 8.29 µM); in the assay with Streptococcus pyogenes it was above 8 µg/mL; in assay [1] it was above 8 µg/mL; in the assay on Shigella flexneri, above 8 µg/mL. Also, the MIC was above 8 µg/mL against Streptococcus agalactiae; above 8 µg/mL in [2]; above 8 µg/mL in the assay with E. coli MG1655; 8 µg/mL (≈ 16.6 µM) in [3]; above 8 µg/mL in assay [4]; above 8 µg/mL in assay [5].

For `N#Cc1cccc(S(=O)(=O)N[C@@H]2CCN(Cc3ccc(OC4CCOCC4)cc3)C2)c1` [Compound 54], the MIC is above 8 µg/mL in the assay with E. coli BW25113; above 8 µg/mL against Edwardsiella tarda; 2 µg/mL (≈ 4.53 µM) against E. coli JW5503 (deltolC); above 8 µg/mL in the assay with Streptococcus pyogenes; above 8 µg/mL in assay [1]; above 8 µg/mL against Shigella flexneri. For the same compound, the MIC in the assay with Streptococcus agalactiae was above 8 µg/mL; in assay [2], 8 µg/mL (≈ 18.1 µM); in the assay on E. coli MG1655 it was above 8 µg/mL; in [3] it was above 8 µg/mL; in [4], above 8 µg/mL; in assay [5], above 8 µg/mL.

Consider `O=S(=O)(N[C@@H]1CCN(Cc2ccc(SC(F)(F)F)cc2)C1)c1cccc(OC(F)(F)F)c1` [Compound 55], for which the MIC was above 8 µg/mL with E. coli BW25113; above 8 µg/mL in the assay with Edwardsiella tarda; 8 µg/mL (≈ 16 µM) against E. coli JW5503 (deltolC); above 8 µg/mL with Streptococcus pyogenes; above 8 µg/mL in assay [1]; above 8 µg/mL in the assay with Shigella flexneri. Moreover, the MIC (against Streptococcus agalactiae; in assay [2]; with E. coli MG1655; in [3]; in [4]; in [5]) was above 8 µg/mL in each case.

Turning to `Cc1c(CN2CC[C@@H](NS(=O)(=O)c3cccc(C(F)(F)F)c3)C2)cnn1-c1ccccc1` [Compound 56], the MIC (with E. coli BW25113; with Edwardsiella tarda; in the assay with E. coli JW5503 (deltolC); in the assay on Streptococcus pyogenes; in assay [1]; in the assay with Shigella flexneri) was above 8 µg/mL throughout. The MIC (in the assay with Streptococcus agalactiae; in assay [2]; in the assay with E. coli MG1655; in [3]; in assay [4]; in assay [5]) was above 8 µg/mL in each case.

For `O=S(=O)(N[C@@H]1CCN(Cc2ccc(-c3nccs3)cc2)C1)c1cccc(C(F)(F)F)c1` [Compound 57], the MIC is above 8 µg/mL in the assay on E. coli BW25113; above 8 µg/mL in the assay with Edwardsiella tarda; 8 µg/mL (≈ 17.1 µM) in the assay with E. coli JW5503 (deltolC); above 8 µg/mL against Streptococcus pyogenes; above 8 µg/mL in assay [1]; above 8 µg/mL in the assay on Shigella flexneri. Further, the minimal inhibitory concentration (MIC) (in the assay on Streptococcus agalactiae; in assay [2]; in the assay with E. coli MG1655; in assay [3]; in [4]; in assay [5]) was above 8 µg/mL each time.

Take `O=S(=O)(N[C@@H]1CCN(Cc2ccc(-c3cncnc3)cc2)C1)c1cccc(C(F)(F)F)c1` [Compound 58]: the MIC with E. coli BW25113 is above 8 µg/mL; in the assay with Edwardsiella tarda, above 8 µg/mL; against E. coli JW5503 (deltolC) it was 8 µg/mL (≈ 17.3 µM); against Streptococcus pyogenes, above 8 µg/mL; in assay [1], above 8 µg/mL; with Shigella flexneri, above 8 µg/mL. The MIC (in the assay with Streptococcus agalactiae; in assay [2]; in the assay on E. coli MG1655; in [3]; in [4]; in assay [5]) was above 8 µg/mL in each case.

For the compound `CC(C)Oc1ccc(CN2CC[C@@H](NS(=O)(=O)c3cnccc3Cl)C2)cc1` [Compound 59], the MIC (in the assay with E. coli BW25113; against Edwardsiella tarda; with E. coli JW5503 (deltolC); against Streptococcus pyogenes; in [1]; in the assay on Shigella flexneri) was above 8 µg/mL each time. In addition, the MIC (in the assay with Streptococcus agalactiae; in assay [2]; in the assay on E. coli MG1655; in [3]; in assay [4]; in assay [5]) was above 8 µg/mL throughout.

On to `O=S(=O)(N[C@@H]1CCN(Cc2ccc3c(c2)OCCO3)C1)c1cccc(C(F)(F)F)c1` [Compound 60], for which the MIC was above 8 µg/mL in the assay with E. coli BW25113; above 8 µg/mL against Edwardsiella tarda; 8 µg/mL (≈ 18.1 µM) against E. coli JW5503 (deltolC); above 8 µg/mL with Streptococcus pyogenes; above 8 µg/mL in [1]; above 8 µg/mL against Shigella flexneri. Besides, the MIC (against Streptococcus agalactiae; in [2]; with E. coli MG1655; in [3]; in assay [4]; in assay [5]) was above 8 µg/mL throughout.

Turning to `COc1ccc(-c2ccc(CN3CC[C@@H](NS(=O)(=O)c4cccc(C(F)(F)F)c4)C3)cc2)cc1` [Compound 61], the MIC in the assay with E. coli BW25113 was above 8 µg/mL; in the assay with Edwardsiella tarda, above 8 µg/mL; with E. coli JW5503 (deltolC) it was 4 µg/mL (≈ 8.15 µM); in the assay with Streptococcus pyogenes, around 8 µg/mL (≈ 16.3 µM); in assay [1], above 8 µg/mL; in the assay with Shigella flexneri, above 8 µg/mL. Further, the MIC in the assay with Streptococcus agalactiae was above 8 µg/mL; in [2] it was above 8 µg/mL; with E. coli MG1655, above 8 µg/mL; in assay [3], around 8 µg/mL (≈ 16.3 µM); in [4], above 8 µg/mL; in assay [5] it was above 8 µg/mL.

Turning to `O=S(=O)(N[C@@H]1CCN(Cc2ccc3c(c2)OCCO3)C1)c1cccc(OC(F)(F)F)c1` [Compound 62], the MIC in the assay with E. coli BW25113 is above 8 µg/mL; with Edwardsiella tarda, above 8 µg/mL; in the assay on E. coli JW5503 (deltolC), 8 µg/mL (≈ 17.4 µM); in the assay with Streptococcus pyogenes, above 8 µg/mL; in assay [1], above 8 µg/mL; against Shigella flexneri it was above 8 µg/mL. In addition, the MIC (in the assay on Streptococcus agalactiae; in assay [2]; in the assay with E. coli MG1655; in assay [3]; in assay [4]; in [5]) was above 8 µg/mL each time.

With `O=S(=O)(N[C@@H]1CCN(Cc2ccc(-c3cncnc3)cc2)C1)c1cccc(OC(F)(F)F)c1` [Compound 63], the MIC in the assay on E. coli BW25113 was above 8 µg/mL; in the assay with Edwardsiella tarda, above 8 µg/mL; in the assay on E. coli JW5503 (deltolC) it was 4 µg/mL (≈ 8.36 µM); against Streptococcus pyogenes, above 8 µg/mL; in [1], above 8 µg/mL; in the assay on Shigella flexneri it was above 8 µg/mL. The MIC (in the assay on Streptococcus agalactiae; in assay [2]; with E. coli MG1655; in assay [3]; in assay [4]; in assay [5]) was above 8 µg/mL throughout.

On to `O=S(=O)(N[C@@H]1CCN(Cc2ccc(OCC(F)F)cc2)C1)c1cccc(C(F)(F)F)c1` [Compound 64], for which the MIC in the assay on E. coli BW25113 was above 8 µg/mL; with Edwardsiella tarda, above 8 µg/mL; in the assay with E. coli JW5503 (deltolC) it was 0.25 µg/mL (≈ 0.538 µM); in the assay on Streptococcus pyogenes it was above 8 µg/mL; in [1], above 8 µg/mL; in the assay on Shigella flexneri, above 8 µg/mL. The MIC is above 8 µg/mL against Streptococcus agalactiae; 4 µg/mL (≈ 8.61 µM) in assay [2]; above 8 µg/mL in the assay on E. coli MG1655; above 8 µg/mL in assay [3]; above 8 µg/mL in [4]; above 8 µg/mL in assay [5].

Consider `O=S(=O)(N[C@@H]1CCN(Cc2ccc(OC3CC3)cc2)C1)c1cc(S(=O)(=O)c2ccccc2)cs1` [Compound 65], for which the MIC (in the assay on E. coli BW25113; in the assay with Edwardsiella tarda; in the assay on E. coli JW5503 (deltolC); against Streptococcus pyogenes; in assay [1]; against Shigella flexneri) was above 8 µg/mL each time. In addition, the MIC (in the assay with Streptococcus agalactiae; in [2]; with E. coli MG1655; in assay [3]; in assay [4]; in [5]) was above 8 µg/mL each time.

Turning to `COc1ccccc1-c1ccc(CN2CC[C@@H](NS(=O)(=O)c3cccc(C(F)(F)F)c3)C2)cc1` [Compound 66], the MIC in the assay with E. coli BW25113 is above 8 µg/mL; in the assay with Edwardsiella tarda, above 8 µg/mL; in the assay on E. coli JW5503 (deltolC) it was 4 µg/mL (≈ 8.15 µM); in the assay on Streptococcus pyogenes, above 8 µg/mL; in [1], above 8 µg/mL; with Shigella flexneri it was above 8 µg/mL. For the same compound, the MIC against Streptococcus agalactiae was above 8 µg/mL; in assay [2] it was above 8 µg/mL; with E. coli MG1655, above 8 µg/mL; in assay [3], 8 µg/mL (≈ 16.3 µM); in assay [4], above 8 µg/mL; in assay [5], above 8 µg/mL.
